Several values for one entry are separate records, joined by “and”; a condition that tells them apart may be missing. Identical values can stand only once. Like-named read-outs stand apart in the source and are kept apart here.
Assays:
ABL2/ARG = target: T1, ABL2/ARG (Homo sapiens, UniProt P42684); assay: HotSpot in vitro kinase radiometric assay; type: biochemical
T1 construct: purchased Reaction Biology (HotSpot contract assay)

LYN B = target: T2, LYN B (Homo sapiens, UniProt P07948); assay: HotSpot in vitro kinase radiometric assay; type: biochemical; conditions: 10 μM; Fig 6C median ± standard deviation (n = 2)
T2 construct: purchased Reaction Biology (HotSpot contract assay)
Procedure, shortened: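 Off-target screen in a radioisotope catalytic assay: test compounds incubated with each kinase, its substrate, cofactors and 33P- or 32P-labelled ɣ-ATP. Filters retaining labelled product gave the signal.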

382 unique human kinases [1] = target: T3, 382 unique human kinases (Homo sapiens, UniProt P07332); assay: biochemical; type: biochemical; conditions: FES/FPS; 10 uM; read-out: % Enzyme Activity (relative to DMSO controls)
T3 construct: purchased Reaction Biology (HotSpot contract assay)

382 unique human kinases [2] = target: T4, 382 unique human kinases (Homo sapiens, UniProt P08581, D1228H); assay: biochemical; type: biochemical; conditions: c-MET (D1228H); 10 uM; read-out: % Enzyme Activity (relative to DMSO controls)
T4 construct: purchased Reaction Biology (HotSpot contract assay)

382 unique human kinases [3] = target: T5, 382 unique human kinases (Homo sapiens, UniProt P11802); assay: biochemical; type: biochemical; conditions: CDK4/cyclin D3; [ATP] 5 µM; compound 10 uM; read-out: % Enzyme Activity (relative to DMSO controls)
T5 construct: purchased Reaction Biology (HotSpot contract assay)

382 unique human kinases [4] = target: T6, 382 unique human kinases (Homo sapiens, UniProt P24941); assay: biochemical; type: biochemical; conditions: 10 uM, read-out: % Enzyme Activity (relative to DMSO controls)
T6 construct: purchased Reaction Biology (HotSpot contract assay)

382 unique human kinases [5] = target: T7, 382 unique human kinases (Homo sapiens, UniProt P31751, E17K); assay: biochemical; type: biochemical; conditions: AKT2 (E17K); 10 uM; read-out: % Enzyme Activity (relative to DMSO controls)
T7 construct: purchased Reaction Biology (HotSpot contract assay)

382 unique human kinases [6] = target: T8, 382 unique human kinases (Homo sapiens, UniProt P50750); assay: biochemical; type: biochemical; conditions: CDK9/cyclin T1; 10 uM; read-out: % Enzyme Activity (relative to DMSO controls)
T8 construct: purchased Reaction Biology (HotSpot contract assay)

382 unique human kinases [7] = assay: biochemical; type: biochemical
HSP90AB1 = system: HSP90AB1; design: method as in ChEMBL23 (accessed: 23/08/2018); conditions: average of reported values; ref ChEMBL23 (accessed: 23/08/2018); cited from earlier work
TRAP1 = system: TRAP1; design: method as in ChEMBL23 (accessed: 23/08/2018); conditions: average of reported values; ref ChEMBL23 (accessed: 23/08/2018); cited from earlier work
ABL1 = ABL1 (Homo sapiens, UniProt P00519); assay: HotSpot in vitro kinase radiometric assay; type: biochemical; design: purchased Reaction Biology (HotSpot contract assay)
DDR1 = DDR1 (Homo sapiens, UniProt Q08345); assay: HotSpot in vitro kinase radiometric assay; type: biochemical; design: purchased Reaction Biology (HotSpot contract assay)
Sequence of DDR1 (Q08345 19-913): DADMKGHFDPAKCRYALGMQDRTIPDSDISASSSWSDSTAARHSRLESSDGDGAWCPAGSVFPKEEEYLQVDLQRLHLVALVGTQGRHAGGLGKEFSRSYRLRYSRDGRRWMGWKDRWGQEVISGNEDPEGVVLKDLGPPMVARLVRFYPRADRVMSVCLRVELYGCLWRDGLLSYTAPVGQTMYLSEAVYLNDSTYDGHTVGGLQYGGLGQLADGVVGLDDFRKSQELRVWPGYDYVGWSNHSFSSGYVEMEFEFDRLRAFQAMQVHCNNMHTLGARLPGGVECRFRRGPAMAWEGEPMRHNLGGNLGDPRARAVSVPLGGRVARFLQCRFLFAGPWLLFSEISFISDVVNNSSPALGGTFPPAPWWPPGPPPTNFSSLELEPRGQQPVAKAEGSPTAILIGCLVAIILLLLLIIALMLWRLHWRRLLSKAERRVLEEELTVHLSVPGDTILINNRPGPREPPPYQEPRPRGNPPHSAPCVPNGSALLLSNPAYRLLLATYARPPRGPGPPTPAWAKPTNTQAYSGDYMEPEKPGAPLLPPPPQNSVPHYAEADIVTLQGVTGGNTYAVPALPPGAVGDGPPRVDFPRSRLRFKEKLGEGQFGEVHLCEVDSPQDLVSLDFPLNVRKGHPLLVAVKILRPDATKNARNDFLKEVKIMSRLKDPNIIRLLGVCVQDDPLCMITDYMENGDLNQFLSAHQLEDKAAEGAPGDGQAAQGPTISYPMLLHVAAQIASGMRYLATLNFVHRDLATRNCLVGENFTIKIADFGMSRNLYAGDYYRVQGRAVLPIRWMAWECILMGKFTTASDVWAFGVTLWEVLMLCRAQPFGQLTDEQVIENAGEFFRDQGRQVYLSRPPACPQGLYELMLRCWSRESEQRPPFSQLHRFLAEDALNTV

Sequence of ABL1 (P00519 whole entry): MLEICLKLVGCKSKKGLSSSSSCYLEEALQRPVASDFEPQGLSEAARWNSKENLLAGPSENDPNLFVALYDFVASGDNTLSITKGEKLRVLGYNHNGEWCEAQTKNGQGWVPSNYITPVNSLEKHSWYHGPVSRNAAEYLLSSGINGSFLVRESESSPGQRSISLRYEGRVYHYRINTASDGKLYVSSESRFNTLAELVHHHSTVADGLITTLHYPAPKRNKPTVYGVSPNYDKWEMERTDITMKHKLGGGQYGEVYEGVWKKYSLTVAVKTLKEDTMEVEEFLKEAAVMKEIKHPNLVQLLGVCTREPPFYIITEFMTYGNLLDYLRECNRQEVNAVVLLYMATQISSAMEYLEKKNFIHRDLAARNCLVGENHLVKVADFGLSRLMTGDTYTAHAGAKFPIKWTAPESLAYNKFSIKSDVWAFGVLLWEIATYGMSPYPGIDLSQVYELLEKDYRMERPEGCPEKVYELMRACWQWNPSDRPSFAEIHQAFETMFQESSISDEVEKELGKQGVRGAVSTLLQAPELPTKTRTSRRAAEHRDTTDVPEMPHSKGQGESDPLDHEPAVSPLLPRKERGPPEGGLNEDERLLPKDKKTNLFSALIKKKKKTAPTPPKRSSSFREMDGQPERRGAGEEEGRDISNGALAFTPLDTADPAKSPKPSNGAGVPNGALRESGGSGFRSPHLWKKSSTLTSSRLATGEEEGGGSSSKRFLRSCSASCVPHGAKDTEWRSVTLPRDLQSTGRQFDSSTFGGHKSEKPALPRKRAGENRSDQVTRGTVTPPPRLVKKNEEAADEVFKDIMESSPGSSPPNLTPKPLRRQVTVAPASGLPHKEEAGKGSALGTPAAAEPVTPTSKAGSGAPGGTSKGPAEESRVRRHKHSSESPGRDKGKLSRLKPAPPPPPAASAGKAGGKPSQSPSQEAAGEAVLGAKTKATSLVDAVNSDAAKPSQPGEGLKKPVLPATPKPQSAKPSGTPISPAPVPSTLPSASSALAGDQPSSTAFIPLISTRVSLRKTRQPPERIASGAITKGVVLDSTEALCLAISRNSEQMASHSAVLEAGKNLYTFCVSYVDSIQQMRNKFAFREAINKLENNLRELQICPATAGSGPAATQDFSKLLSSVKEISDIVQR
T1 sequence (P42684 whole entry): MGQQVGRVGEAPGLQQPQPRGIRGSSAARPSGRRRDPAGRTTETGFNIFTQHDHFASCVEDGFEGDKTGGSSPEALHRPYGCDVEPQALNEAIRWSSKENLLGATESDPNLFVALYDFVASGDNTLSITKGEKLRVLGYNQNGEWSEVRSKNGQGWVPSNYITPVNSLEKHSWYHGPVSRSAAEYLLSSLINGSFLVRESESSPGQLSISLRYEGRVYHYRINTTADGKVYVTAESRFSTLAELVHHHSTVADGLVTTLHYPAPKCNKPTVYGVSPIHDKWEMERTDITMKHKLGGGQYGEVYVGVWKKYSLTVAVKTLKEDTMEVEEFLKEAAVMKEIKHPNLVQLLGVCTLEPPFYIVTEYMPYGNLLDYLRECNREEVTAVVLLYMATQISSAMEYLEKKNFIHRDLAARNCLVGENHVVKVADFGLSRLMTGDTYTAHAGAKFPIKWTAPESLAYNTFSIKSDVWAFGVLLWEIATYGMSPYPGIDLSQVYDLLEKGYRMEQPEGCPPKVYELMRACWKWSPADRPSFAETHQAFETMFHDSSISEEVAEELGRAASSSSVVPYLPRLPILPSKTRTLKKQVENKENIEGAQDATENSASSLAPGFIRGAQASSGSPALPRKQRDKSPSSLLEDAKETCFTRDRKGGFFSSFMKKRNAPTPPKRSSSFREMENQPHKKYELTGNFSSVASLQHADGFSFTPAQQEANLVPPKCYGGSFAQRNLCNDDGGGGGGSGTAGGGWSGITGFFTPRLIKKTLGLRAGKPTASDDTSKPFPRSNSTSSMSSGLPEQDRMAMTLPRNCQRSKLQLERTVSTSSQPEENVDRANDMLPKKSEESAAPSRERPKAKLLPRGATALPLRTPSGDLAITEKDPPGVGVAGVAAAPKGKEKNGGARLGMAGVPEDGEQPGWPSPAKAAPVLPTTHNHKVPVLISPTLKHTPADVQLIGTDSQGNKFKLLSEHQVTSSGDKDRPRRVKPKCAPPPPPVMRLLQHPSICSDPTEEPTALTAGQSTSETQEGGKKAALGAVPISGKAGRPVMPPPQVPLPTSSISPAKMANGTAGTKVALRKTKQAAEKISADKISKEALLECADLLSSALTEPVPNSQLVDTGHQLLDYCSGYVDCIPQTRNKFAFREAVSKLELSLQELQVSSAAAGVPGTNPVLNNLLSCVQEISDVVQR
T4 sequence (P08581 25-1390 D1228H): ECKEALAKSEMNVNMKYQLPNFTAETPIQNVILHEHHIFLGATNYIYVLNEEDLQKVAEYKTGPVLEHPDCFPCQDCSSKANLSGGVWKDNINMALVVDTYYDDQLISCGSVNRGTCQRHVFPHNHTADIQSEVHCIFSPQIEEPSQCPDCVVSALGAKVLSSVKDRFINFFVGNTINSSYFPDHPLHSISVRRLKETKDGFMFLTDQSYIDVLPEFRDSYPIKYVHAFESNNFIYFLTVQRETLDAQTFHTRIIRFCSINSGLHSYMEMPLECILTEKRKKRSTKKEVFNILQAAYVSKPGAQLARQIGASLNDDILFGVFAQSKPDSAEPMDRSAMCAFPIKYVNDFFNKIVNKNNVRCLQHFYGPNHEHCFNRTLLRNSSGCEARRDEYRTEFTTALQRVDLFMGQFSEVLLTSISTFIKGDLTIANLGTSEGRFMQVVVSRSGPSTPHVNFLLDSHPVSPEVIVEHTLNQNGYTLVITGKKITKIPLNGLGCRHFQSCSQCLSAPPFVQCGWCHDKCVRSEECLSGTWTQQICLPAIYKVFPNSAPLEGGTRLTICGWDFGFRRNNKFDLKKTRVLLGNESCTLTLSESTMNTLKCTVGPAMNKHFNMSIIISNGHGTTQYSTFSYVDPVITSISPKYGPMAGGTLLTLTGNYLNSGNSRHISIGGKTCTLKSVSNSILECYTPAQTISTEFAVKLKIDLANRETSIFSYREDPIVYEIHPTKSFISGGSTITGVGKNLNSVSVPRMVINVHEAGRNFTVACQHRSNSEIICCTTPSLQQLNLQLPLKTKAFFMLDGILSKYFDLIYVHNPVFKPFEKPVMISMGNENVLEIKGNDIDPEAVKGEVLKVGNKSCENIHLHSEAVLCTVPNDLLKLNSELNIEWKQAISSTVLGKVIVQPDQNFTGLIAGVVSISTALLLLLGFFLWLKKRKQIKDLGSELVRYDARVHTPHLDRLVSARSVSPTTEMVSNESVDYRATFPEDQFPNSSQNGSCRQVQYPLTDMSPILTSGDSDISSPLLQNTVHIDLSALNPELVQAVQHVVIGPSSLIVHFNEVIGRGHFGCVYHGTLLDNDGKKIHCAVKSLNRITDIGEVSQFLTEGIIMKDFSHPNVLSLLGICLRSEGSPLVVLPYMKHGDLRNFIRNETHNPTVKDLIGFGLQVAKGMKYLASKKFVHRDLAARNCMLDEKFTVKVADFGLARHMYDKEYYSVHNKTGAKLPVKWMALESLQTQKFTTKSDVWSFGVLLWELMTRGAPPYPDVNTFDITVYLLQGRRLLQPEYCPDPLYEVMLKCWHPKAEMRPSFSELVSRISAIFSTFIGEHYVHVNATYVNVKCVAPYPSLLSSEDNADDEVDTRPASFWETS
T8 sequence (P50750 whole entry): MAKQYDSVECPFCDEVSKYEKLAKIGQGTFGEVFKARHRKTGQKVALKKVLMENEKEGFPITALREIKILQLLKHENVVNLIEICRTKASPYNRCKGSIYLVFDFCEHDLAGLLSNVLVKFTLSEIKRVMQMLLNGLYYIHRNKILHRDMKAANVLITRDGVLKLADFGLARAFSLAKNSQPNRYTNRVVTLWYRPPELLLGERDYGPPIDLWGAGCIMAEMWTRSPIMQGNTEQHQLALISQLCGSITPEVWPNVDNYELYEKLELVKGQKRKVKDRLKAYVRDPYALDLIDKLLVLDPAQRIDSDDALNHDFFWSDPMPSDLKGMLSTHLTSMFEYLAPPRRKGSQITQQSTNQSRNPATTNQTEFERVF

CC(C)c1cc(-c2n[nH]c(=O)n2-c2ccc3c(ccn3C)c2)c(O)cc1O [Ganetespib]
HILLSLOPE (ABL2/ARG; ABL2, single replicate curves): -0.77 and -0.90 and -0.92
IC50 (ABL2/ARG; ABL2, single replicate curves, read-out: IC50): 0.174 µM and 0.23 µM and 0.24 µM
IC50 (ABL2/ARG; radiometric 10-point concentration-response, n = 3, read-out: in vitro biochemical IC50, ABL2): 0.215 µM
inhibition at 1 µM (ABL2/ARG; read-out: % inhibition of ABL2 at 1 μM, 1 μM, secondary screening): > 85%
% inhibition at 10 uM: LYN B (LYN B): not inhibited
remaining activity at 10 µM (382 unique human kinases [1]): 98.6%
remaining activity at 10 µM (382 unique human kinases [2]): 98.6%
remaining activity at 10 µM (382 unique human kinases [3]): 53.8%
remaining activity at 10 µM (382 unique human kinases [4]; CDK2/Cyclin A1): 108%
remaining activity at 10 µM (382 unique human kinases [4]; CDK2/cyclin E): 93.7%
remaining activity at 10 µM (382 unique human kinases [5]): 108%
remaining activity at 10 µM (382 unique human kinases [6]): 100%
number of kinases with inhibition of catalytic activity below 1 μM (382 unique human kinases [7]): 4
number of native kinases inhibited by more than 85% at 10 μM (382 unique human kinases [7]; 10 μM): 20
In vitro screening: kinases hit / kinases screened (382 unique human kinases [7]; Figure 3): 21/382
number of off-target kinases experimentally identified, In vitro binding (KinomeSCAN) (382 unique human kinases [7]; cutoff of >85% inhibition at 10 μM, luminespib and ganetespib large kinome panel, others 16-kinase panel): 21
pActivity, HSP90AB1 (HSP90AB1): 8.3
pActivity, TRAP1 (TRAP1): 7.29
HILLSLOPE (ABL1; ABL1, single replicate curves): -0.99 and -0.93 and -0.96
IC50 (ABL1; ABL1, single replicate curves, read-out: IC50): 0.625 µM and 0.519 µM and 0.539 µM
IC50 (ABL1; radiometric 10-point concentration-response, n = 3, read-out: in vitro biochemical IC50, ABL1): 0.561 µM
inhibition at 1 µM (ABL1; read-out: % inhibition of ABL1 at 1 μM, 1 μM, secondary screening): > 80%
HILLSLOPE (DDR1; DDR1, single replicate curves): -0.94 and -1.03 and -0.91
IC50 (DDR1; DDR1, single replicate curves, read-out: IC50): 0.361 µM and 0.363 µM and 0.289 µM
IC50 (DDR1; radiometric 10-point concentration-response, n = 3, read-out: in vitro biochemical IC50, DDR1): 0.338 µM
inhibition at 1 µM (DDR1; read-out: % inhibition of DDR1 at 1 μM, 1 μM, secondary screening): > 85%

Source: PMC8550792, “Evolution of kinase polypharmacology across HSP90 drug discovery” (Cell Chemical Biology, 2021)
